# Measurements taken from US8497278B2, “Imidazo[1,2-a]pyridine compounds” (priority 2008, dated 2013).
# System: central benzodiazepine receptors
# Test: Central benzodiazepine receptor binding (test of Speth et al.)
# Details: 1000 nM of the compound
# Description: Compounds of the invention were assessed for their binding to the benzodiazepine receptor by the test of Speth et al. [Life Sci. 24, 351 (1979)] for central benzodiazepine receptors and LeFur et al. [Life Sci. 33, 449 (1983)] for peripheral receptors. The compounds were tested first at 1.0E-09, 1.0E-07 and 1.0E-05 M in single determination. […] The specific ligand binding to the receptor is defined as the difference between the total binding and the nonspecific binding determined in the presence of an excess of unlabelled ligand. In each experiment, the respective reference compound was tested concurrently with the test compounds in order to assess the assay suitability. It was tested at several concentrations (for IC50 value determination), and the data were compared with historical values. The assay was rendered valid if suitability criteria were met.
# BZD central binding data for the compounds is provided in Table 3, wherein is provided the percent inhibition of central BZD in the presence of 1000 nM of the compound.
row,Compound,% Inhibition at 1000 nM for CBZD
1,"Cc1ccc(-c2nc3ccc(C)cn3c2CNc2ccon2)cc1 [Compound 149, N-((6-methyl-2-p-tolylH-imidazo[1,2-a]pyridin-3-yl)methyl)isoxazole-3-amine]",++ (percentage of inhibition of central BZD site binding is greater than 80% in the presence of 1000 nM of the compound)
2,"Cc1cc(Cl)nc(NCc2c(-c3ccc(C#N)cc3)nc3ccc(Cl)cn23)n1 [Compound 161, 4-(6-chloro-3-((4-chloro-6-methylpyrimidin-2-ylamino)methyl)imidazo[1,2-a]pyridin-2-yl)benzonitrile]",++ (percentage of inhibition of central BZD site binding is greater than 80% in the presence of 1000 nM of the compound)
3,"O=C1COc2ccccc2N1Cc1c(-c2ccc(Cl)cc2)nc2ccccn12 [Compound 124, 4-((2-(4-chlorophenyl)imidazo[1,2-a]pyridin-3-yl)methyl)-2H-benzo[b][1,4]oxazin-3(4H)-one]",++ (percentage of inhibition of central BZD site binding is greater than 80% in the presence of 1000 nM of the compound)
4,"Cn1ccnc1Cc1c(-c2ccc(F)cc2)nc2ccc(F)cn12 [Compound 199, 6-fluoro-2-(4-fluorophenyl)-3-((1-methyl-1H-imidazol-2-yl)methyl)imidazo[1,2-a]pyridine]",++ (percentage of inhibition of central BZD site binding is greater than 80% in the presence of 1000 nM of the compound)
5,"Fc1cc(F)nc(NCc2c(-c3ccc(Cl)cc3)nc3ccccn23)n1 [Compound 167, N-((2-(4-chlorophenyl)imidazo[1,2-a]pyridin-3-yl)methyl)-4,6-difluoropyrimidin-2-amine]",++ (percentage of inhibition of central BZD site binding is greater than 80% in the presence of 1000 nM of the compound)
6,"c1ccc(-c2nc3ccccn3c2Cn2nccn2)cc1 [Compound 51, 3-((2H-1,2,3-triazol-2-yl)methyl)-2-phenylH-imidazo[1,2-a]pyridine]",++ (percentage of inhibition of central BZD site binding is greater than 80% in the presence of 1000 nM of the compound)
7,"Clc1ccc(-c2nc3ccc(Cl)cn3c2Cn2cncn2)cc1 [Compound 18, 3-((1H-1,2,4-triazol-1-yl)methyl)-6-chloro-2-(4-chlorophenyl)H-imidazo[1,2-a]pyridine]",++ (percentage of inhibition of central BZD site binding is greater than 80% in the presence of 1000 nM of the compound)
8,"Cc1ccc(-c2nc3c(Cl)cc(Cl)cn3c2CNc2nc(C)cc(C)n2)cc1 [Compound 172, (6,8-Dichloro-2-p-tolyl-imidazo[1,2-a]pyridin-3-ylmethyl)-(4,6-dimethyl-pyrimidin-2-yl)-amine]",++ (percentage of inhibition of central BZD site binding is greater than 80% in the presence of 1000 nM of the compound)
9,"Cc1ccc(-c2nc3ccc(C)cn3c2COc2cccnc2)cc1 [Compound 175, 6-Methyl-3-(pyridin-3-yloxymethyl)-2-p-tolyl-imidazo[1,2-a]pyridine]",++ (percentage of inhibition of central BZD site binding is greater than 80% in the presence of 1000 nM of the compound)
10,"Cl.Clc1ccc(-c2nc3ccc(Cl)cn3c2CNc2ncccn2)cc1 [Compound 156, N-((6-chloro-2-(4-chlorophenyl)H-imidazo[1,2-a]pyridin-3-yl)methyl)pyrimidin-2-amine hydrochloride]",++ (percentage of inhibition of central BZD site binding is greater than 80% in the presence of 1000 nM of the compound)
11,"Fc1ccc(-c2nc3ccc(F)cn3c2Cc2ncn[nH]2)cc1 [Compound 210, 3-((1H-1,2,4-triazol-5-yl)methyl)-6-fluoro-2-(4-fluorophenyl)imidazo[1,2-a]pyridine]",++ (percentage of inhibition of central BZD site binding is greater than 80% in the presence of 1000 nM of the compound)
12,"Cc1ccc(-c2nc3ccc(C)cn3c2CSc2nncn2C)cc1 [Compound 176, 3-((4-methyl-4H-1,2,4-triazol-3-ylthio)methyl)-6-methyl-2-p-tolylH-imidazo[1,2-a]pyridine]",++ (percentage of inhibition of central BZD site binding is greater than 80% in the presence of 1000 nM of the compound)
13,"Cc1ccc(-c2nc3ccc(C)cn3c2Cn2ccnc2C(C)C)cc1 [Compound 5, 3-((2-Isopropyl-1H-imidazol-1-yl)methyl)-6-methyl-2-p-tolylH-imidazo[1,2-a]pyridine]",++ (percentage of inhibition of central BZD site binding is greater than 80% in the presence of 1000 nM of the compound)
14,"CN(C)C(=O)c1ncn(Cc2c(-c3ccc(Cl)cc3)nc3ccccn23)n1 [Compound 75, 1-((2-(4-chlorophenyl)imidazo[1,2-a]pyridin-3-yl)methyl)-N,N-dimethyl-1H-1,2,4-triazole-3-carboxamide]",++ (percentage of inhibition of central BZD site binding is greater than 80% in the presence of 1000 nM of the compound)
15,"Cc1ccc(-c2nc3ccc(C)cn3c2Cn2ccccc2=O)cc1 [Compound 96, 1-((6-methyl-2-p-tolyl-H-imidazo[1,2-a]pyridin-3-yl)methyl)pyridin-2(1H)-one]",++ (percentage of inhibition of central BZD site binding is greater than 80% in the presence of 1000 nM of the compound)
16,"CC(C)c1nnc(Cc2c(-c3ccc(Cl)cc3)nc3ccccn23)[nH]1 [Compound 231, 2-(4-chlorophenyl)-3-((5-isopropyl-4H-1,2,4-triazol-3-yl)methyl)imidazo[1,2-a]pyridine]",++ (percentage of inhibition of central BZD site binding is greater than 80% in the presence of 1000 nM of the compound)
17,"CN1CCN(c2cc(Cc3c(-c4ccc(Cl)cc4)nc4ccccn34)ncn2)CC1 [Compound 244, 2-(4-chlorophenyl)-3-((6-(4-methylpiperazin-1-yl)pyrimidin-4-yl)methyl)imidazo[1,2-a]pyridine]",++ (percentage of inhibition of central BZD site binding is greater than 80% in the presence of 1000 nM of the compound)
18,"CCOC(=O)c1cc(C)nn1Cc1c(-c2ccc(Cl)cc2)nc2ccccn12 [Compound 28, Ethyl 1-((2-(4-chlorophenyl)imidazo[1,2-a]pyridin-3-yl)methyl)-3-methyl-1H-pyrazole-5-carboxylate]",++ (percentage of inhibition of central BZD site binding is greater than 80% in the presence of 1000 nM of the compound)
19,"NC(=O)c1nccn1Cc1c(-c2ccc(Cl)cc2)nc2cccnn12 [Compound 87, 1-((2-(4-chlorophenyl)imidazo[1,2-b]pyridazin-3-yl)methyl)-1H-imidazole-2-carboxamide]",+ (percentage of inhibition of central BZD site binding is greater than 50% but less than 80% in the presence of 1000 nM of the compound)
20,"Cc1ccc(-c2nc3ccc(C)cn3c2CNc2nccc(C)n2)cc1 [Compound 143, 4-methyl-N-((6-methyl-2-p-tolylH-imidazo[1,2-a]pyridin-3-yl)methyl)pyrimidin-2-amine]",++ (percentage of inhibition of central BZD site binding is greater than 80% in the presence of 1000 nM of the compound)
21,"CON(C)C(=O)c1ncnn1Cc1c(-c2ccc(Cl)cc2)nc2ccc(Cl)cn12 [Compound 82, 2-[6-Chloro-2-(4-chloro-phenyl)-imidazo[1,2-a]pyridin-3-ylmethyl]-2H-[1,2,4]triazole-3-carboxylic acid methoxy-methyl-amide]",++ (percentage of inhibition of central BZD site binding is greater than 80% in the presence of 1000 nM of the compound)
22,"COC(=O)c1ncn(Cc2c(-c3ccccc3)nc3ccc(Cl)cn23)n1 [Compound 45, 1-(6-Chloro-2-phenyl-imidazo[1,2-a]pyridin-3-ylmethyl)-1H-[1,2,4]triazole-3-carboxylic acid methyl ester]",+ (percentage of inhibition of central BZD site binding is greater than 50% but less than 80% in the presence of 1000 nM of the compound)
23,"CNC(=O)c1cc(C)nn1Cc1c(-c2ccc(Cl)cc2)nc2ccccn12 [Compound 79, 1-((2-(4-chlorophenyl)imidazo[1,2-a]pyridin-3-yl)methyl)-N,3-dimethyl-1H-pyrazole-5-carboxamide]",+ (percentage of inhibition of central BZD site binding is greater than 50% but less than 80% in the presence of 1000 nM of the compound)
24,"CCOC(=O)c1cn(Cc2c(-c3ccc(Cl)cc3)nc3ccccn23)c(=O)[nH]c1=O [Compound 126, Ethyl 1-((2-(4-chlorophenyl)imidazo[1,2-a]pyridin-3-yl)methyl)-2,4-dioxo-1,2,3,4-tetrahydropyrimidine-5-carboxylate]",− (percentage of inhibition of central BZD site binding is less than 50% in the presence of 1000 nM of the compound)
25,"Cc1ccc(-c2nc3c(Cl)cc(Cl)cn3c2CNc2ncc[nH]2)cc1 [Compound 171, (6,8-Dichloro-2-p-tolyl-imidazo[1,2-a]pyridin-3-ylmethyl)-(1H-imidazol-2-yl)-amine]",++ (percentage of inhibition of central BZD site binding is greater than 80% in the presence of 1000 nM of the compound)
26,"Fc1ccc2nc(-c3ccc(Cl)cc3)c(Cn3cncn3)n2c1 [Compound 55, 3-((1H-1,2,4-triazol-1-yl)methyl)-2-(4-chlorophenyl)-6-fluoroH-imidazo[1,2-a]pyridine]",++ (percentage of inhibition of central BZD site binding is greater than 80% in the presence of 1000 nM of the compound)
